The record followed here is ChEMBL document CHEMBL5465560, “Selectivity Literature for EUbOPEN Chemogenomic Library” (2024).

In experiment [1] the target is Mitogen-activated protein kinase 1 (Homo sapiens, UniProt P28482). Briefly: Selectivity interaction (Kinase panel (DSF assay)) EUB0001558a MAPK1. (DSF heats the sample and reads unfolding from a dye or from intrinsic fluorescence.)
For experiment [2], the target named is Serine/threonine-protein kinase N2 (Homo sapiens, UniProt Q16513). Nature of the experiment: Selectivity interaction (KinomeScan (DiscoverX)) EUB0000092b PKN2. The note with it: at 10 µM.
Sequence of Serine/threonine-protein kinase N2 (Q16513 whole entry, looked up): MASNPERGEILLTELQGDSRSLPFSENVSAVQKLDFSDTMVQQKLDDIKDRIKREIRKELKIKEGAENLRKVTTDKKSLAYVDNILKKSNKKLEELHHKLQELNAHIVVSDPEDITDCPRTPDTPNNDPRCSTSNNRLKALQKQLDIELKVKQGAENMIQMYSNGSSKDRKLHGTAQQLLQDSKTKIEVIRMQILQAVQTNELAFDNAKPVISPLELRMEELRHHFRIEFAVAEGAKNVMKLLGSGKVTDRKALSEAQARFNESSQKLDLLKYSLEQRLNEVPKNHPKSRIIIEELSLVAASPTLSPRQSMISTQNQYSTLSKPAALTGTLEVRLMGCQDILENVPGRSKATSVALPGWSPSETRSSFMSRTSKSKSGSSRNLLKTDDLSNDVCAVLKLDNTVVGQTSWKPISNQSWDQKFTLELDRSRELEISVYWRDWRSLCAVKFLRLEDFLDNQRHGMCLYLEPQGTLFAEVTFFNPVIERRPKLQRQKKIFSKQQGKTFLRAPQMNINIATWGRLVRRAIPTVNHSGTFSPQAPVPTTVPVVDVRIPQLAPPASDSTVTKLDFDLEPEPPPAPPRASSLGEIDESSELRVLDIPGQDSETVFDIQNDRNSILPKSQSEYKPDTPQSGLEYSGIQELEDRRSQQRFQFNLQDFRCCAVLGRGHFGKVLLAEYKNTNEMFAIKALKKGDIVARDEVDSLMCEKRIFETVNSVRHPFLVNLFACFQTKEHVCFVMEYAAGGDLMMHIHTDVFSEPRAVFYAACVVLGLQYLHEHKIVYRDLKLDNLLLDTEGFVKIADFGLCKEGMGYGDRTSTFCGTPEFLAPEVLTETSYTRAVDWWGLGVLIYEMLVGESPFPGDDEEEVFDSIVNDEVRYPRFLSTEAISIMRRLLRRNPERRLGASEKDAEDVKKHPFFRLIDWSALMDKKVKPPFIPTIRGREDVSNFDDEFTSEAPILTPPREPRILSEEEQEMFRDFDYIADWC
Experiment [3] concerns the target Ribosomal protein S6 kinase alpha-2 (Homo sapiens) (UniProt Q15349). Briefly: Selectivity interaction (Kinase screening (Nanosyn)) EUB0000604a RPS6KA2.
In experiment [4] the target is T1, Tyrosine-protein kinase Mer (Homo sapiens) (UniProt Q12866).
T1 sequence (whole entry): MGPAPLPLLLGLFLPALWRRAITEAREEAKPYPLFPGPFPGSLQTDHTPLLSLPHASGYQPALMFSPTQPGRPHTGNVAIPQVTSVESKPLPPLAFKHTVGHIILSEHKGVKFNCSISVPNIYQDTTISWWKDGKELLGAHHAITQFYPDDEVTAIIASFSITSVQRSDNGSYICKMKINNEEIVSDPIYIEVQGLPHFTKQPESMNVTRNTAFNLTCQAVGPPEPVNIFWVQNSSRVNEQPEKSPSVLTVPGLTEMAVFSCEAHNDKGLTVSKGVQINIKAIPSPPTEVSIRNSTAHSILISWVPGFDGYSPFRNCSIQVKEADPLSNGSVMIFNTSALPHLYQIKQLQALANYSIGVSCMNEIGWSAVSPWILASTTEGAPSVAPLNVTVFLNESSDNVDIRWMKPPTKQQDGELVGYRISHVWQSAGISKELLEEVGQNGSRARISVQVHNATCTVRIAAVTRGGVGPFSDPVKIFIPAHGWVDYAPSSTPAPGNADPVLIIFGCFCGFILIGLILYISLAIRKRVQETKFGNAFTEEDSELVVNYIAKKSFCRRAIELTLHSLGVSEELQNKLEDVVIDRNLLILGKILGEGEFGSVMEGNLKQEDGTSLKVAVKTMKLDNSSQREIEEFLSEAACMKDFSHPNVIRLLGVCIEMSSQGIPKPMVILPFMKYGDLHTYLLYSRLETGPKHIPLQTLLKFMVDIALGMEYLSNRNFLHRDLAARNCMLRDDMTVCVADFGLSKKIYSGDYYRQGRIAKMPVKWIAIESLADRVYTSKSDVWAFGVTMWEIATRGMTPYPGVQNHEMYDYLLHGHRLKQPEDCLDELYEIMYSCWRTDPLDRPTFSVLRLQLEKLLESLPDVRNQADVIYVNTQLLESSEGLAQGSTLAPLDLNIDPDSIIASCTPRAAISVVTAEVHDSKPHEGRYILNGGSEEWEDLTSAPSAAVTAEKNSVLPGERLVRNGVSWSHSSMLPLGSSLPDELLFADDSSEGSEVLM
Nature of the experiment: Selectivity interaction (KinomeScan (DiscoverX)) EUB0000666a MERTK. The note with it: at 10 µM.

Experiment [5] addresses T2, Mitogen-activated protein kinase kinase kinase 5 (Homo sapiens) (UniProt Q99683).
T2 sequence (whole entry): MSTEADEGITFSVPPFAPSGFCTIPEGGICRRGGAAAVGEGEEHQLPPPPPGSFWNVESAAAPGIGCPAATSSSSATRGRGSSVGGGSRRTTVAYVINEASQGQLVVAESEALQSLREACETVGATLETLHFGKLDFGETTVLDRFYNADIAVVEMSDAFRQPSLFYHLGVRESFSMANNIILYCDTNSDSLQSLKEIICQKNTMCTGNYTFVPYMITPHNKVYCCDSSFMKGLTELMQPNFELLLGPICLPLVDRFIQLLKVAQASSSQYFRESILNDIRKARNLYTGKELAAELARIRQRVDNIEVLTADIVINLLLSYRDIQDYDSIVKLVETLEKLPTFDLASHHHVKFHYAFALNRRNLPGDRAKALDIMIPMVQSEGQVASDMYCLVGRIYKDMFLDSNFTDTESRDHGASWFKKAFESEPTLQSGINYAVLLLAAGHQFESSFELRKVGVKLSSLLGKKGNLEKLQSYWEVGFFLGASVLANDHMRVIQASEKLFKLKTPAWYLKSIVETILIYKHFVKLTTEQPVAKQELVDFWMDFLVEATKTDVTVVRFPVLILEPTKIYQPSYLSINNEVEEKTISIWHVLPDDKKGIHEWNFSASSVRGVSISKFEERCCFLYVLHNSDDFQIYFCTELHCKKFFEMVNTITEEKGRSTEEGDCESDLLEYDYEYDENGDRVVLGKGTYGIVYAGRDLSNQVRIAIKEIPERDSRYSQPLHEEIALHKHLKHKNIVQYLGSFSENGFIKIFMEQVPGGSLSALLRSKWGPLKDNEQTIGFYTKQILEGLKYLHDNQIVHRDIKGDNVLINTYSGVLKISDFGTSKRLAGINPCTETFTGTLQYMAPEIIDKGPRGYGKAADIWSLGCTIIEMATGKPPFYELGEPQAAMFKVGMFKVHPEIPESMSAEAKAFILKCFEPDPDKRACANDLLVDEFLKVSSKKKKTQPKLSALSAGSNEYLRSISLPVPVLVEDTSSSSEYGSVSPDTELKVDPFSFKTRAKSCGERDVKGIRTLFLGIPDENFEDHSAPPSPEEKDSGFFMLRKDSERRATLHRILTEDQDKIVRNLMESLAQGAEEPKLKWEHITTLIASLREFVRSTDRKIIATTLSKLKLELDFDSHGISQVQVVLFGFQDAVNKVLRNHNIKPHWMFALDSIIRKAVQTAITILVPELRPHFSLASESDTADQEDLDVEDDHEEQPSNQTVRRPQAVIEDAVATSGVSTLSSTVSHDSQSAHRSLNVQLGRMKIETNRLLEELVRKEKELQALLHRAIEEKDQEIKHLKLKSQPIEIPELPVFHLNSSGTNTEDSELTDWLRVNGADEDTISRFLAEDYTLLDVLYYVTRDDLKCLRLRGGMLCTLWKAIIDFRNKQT
Nature of the experiment: Selectivity interaction (ActivX KiNativ screen (kinase selectivity in THP-1 cell lysates)) EUB0000639a MAP3K5. The format is subcellular. The note with it: lysate, at 5 µM.

In experiment [6] the target is T3, Dual specificity mitogen-activated protein kinase kinase 7 (Homo sapiens) (UniProt O14733).
T3 sequence (whole entry): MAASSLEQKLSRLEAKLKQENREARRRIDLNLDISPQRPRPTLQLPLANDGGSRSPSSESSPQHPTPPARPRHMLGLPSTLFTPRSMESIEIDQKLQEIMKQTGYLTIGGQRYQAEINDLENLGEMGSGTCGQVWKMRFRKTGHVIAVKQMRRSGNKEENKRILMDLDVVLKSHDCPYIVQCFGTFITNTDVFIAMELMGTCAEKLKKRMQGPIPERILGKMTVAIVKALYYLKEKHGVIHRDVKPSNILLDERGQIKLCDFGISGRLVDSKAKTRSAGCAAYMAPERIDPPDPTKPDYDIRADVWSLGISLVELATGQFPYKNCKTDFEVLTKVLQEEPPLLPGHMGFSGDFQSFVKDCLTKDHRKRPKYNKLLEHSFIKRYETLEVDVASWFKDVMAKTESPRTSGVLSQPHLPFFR
Briefly: Selectivity interaction (KinomeScan (DiscoverX)) EUB0000229b MAP2K7. The following applies: at 10 µM.

Sequence of Mitogen-activated protein kinase 1 (P28482 whole entry): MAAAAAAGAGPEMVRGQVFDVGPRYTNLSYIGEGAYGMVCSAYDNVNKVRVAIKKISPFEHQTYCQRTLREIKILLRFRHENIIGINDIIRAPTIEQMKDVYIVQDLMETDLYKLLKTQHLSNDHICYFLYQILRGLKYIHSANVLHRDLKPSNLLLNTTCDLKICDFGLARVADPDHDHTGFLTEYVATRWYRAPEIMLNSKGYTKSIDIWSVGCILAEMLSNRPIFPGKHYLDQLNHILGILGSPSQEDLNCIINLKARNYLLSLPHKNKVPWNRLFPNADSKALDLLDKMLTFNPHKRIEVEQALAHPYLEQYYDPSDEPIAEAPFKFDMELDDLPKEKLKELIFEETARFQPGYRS
Sequence of Ribosomal protein S6 kinase alpha-2 (Homo sapiens) (Q15349 whole entry): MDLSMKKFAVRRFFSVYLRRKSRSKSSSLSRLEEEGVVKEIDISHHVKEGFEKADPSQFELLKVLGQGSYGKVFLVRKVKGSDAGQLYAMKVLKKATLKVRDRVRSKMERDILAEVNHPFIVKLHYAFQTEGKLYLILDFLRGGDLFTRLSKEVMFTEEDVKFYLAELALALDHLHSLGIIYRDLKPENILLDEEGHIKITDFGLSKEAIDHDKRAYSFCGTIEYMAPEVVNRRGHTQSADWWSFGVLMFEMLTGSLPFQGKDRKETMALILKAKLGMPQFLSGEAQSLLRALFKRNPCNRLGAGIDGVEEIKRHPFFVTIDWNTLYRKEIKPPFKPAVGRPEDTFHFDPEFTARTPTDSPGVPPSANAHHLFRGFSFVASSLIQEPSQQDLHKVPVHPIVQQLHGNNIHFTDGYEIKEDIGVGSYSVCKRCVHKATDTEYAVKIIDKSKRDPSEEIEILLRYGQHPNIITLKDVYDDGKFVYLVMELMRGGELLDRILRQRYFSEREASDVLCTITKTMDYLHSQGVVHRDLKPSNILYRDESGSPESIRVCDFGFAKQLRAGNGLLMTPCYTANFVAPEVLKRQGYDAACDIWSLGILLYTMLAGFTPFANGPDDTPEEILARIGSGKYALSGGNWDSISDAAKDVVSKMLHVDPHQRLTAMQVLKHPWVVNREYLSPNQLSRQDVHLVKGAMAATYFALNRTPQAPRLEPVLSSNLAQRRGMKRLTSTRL

`CC(C)(O)[C@H](F)CN1Cc2cc(NC(=O)c3cnn4cccnc34)c(N3CCOCC3)cc2C1=O` registered a dTM in experiment [1] of 0.4 K.
`CCC(=O)N1CCN(c2ccc(-n3c(=O)ccc4cnc5ccc(-c6cnc7ccccc7c6)cc5c43)cc2C(F)(F)F)CC1` showed a % of control in experiment [2] of 65%.
Consider `Cc1cnc(Nc2ccc(F)cc2Cl)nc1-c1c[nH]c(C(=O)N[C@H](CO)c2cccc(Cl)c2)c1`, for which the % of inhibition in experiment [3] is 7%.
In experiment [4], `O=C(NOC[C@H](O)CO)c1ccc(F)c(F)c1Nc1ccc(I)cc1F` came in with a % of control of 100%.
Regarding `CC[C@@H]1[C@H](F)C(=O)N[C@@H]1COc1nccc2cc(C(N)=O)c(OC)cc12` [ZIMLOVISERTIB], the % of inhibition in experiment [5] was -16.2%.
With `COc1cc(N(C)c2ccnc3ccc(C(F)(F)F)cc23)cc(OC)c1OC`, in experiment [6], the % binding turned out to be 83%.
